# Measured values published in US20230037448A1, “FLUORINATED QUINOLINE AND QUINOXALINE DERIVATIVES AS DIHYDROOROTATE DEHYDROGENASE (DHODH) INHIBITORS FOR THE TREATMENT OF CANCER, AUTOIMMUNE AND INFLAMMATORY DISEASES” (Janssen Biotech, Inc., priority 2019, published 2023).
# Key:
# human DHODH = biological target: T1, human DHODH (Homo sapiens, UniProt Q02127); assay: DHODH Enzymatic Assay; format: biochemical; settings: purified human DHODH; DCIP absorbance, end-point mode
# T1 construct: purchased Proteros PR-0044
# Experimental: To detect DHODH enzyme activities, dichloroindophenol (DCIP) is added as the final electron acceptor in the assay. DCIP can accept electrons from the reduced coenzyme Q generated in the assay, or from dihydroorotate (DHO) via FMN by binding presumably to the ubiquinone pocket. DCIP solutions are blue, with an intense absorbance around 600 nm, but becomes colorless upon reduction (J. Biol. Chem. (1986) 261, 11386). The assay buffer contained […], pH 7.5, 150 mM NaCl, 0.5 mM EDTA, and 0.1% Triton X-100 in MilliQ water. Substrate consisting of 20 mM DHO, 5 mM CoQ6, and 1 mM DCIP in assay buffer, initiates the reaction. The assay is run in end-point mode by quenching the reaction with the potent DHODH inhibitor brequinar. Absorbance measurements were obtained using the BMG Phera Star plate-reading spectrophotomer. Purified human DHODH was purchased from Proteros (cat. No. PR-0044). Chemicals were purchased from Sigma-Aldrich, Teknova, and Avanti Polar Lipids. Liquid handling was performed using Labcyte Echo and Formulatrix Tempest.
# MOLM-13 cells = assay: MOLM-13 Cellular Assay; format: cell-based; settings: Homo sapiens, MOLM-13, 72 h, 72 hours exposure, cell viability by CellTiter-Glo
# Experimental: MOLM-13 cells were obtained from DSMZ and were maintained in RPMI 1640+Glutamax+25 mM HEPES (Invitrogen, catalog number 72400) supplemented with 10% heat inactivated fetal bovine serum (FBS; Invitrogen, catalog number 16140). The day prior to assay set-up, cells were pelleted, resuspended in fresh media, counted, and cells were plated at 0.4×10^6 cell/mL in a T150 flask. On the day of the assay, cells were pelleted, resuspend in fresh media, counted, and seeded at 5,000 cells/well in white opaque 96-well tissue culture treated microplates (Perkin Elmer, catalog number 6005680). Cells were exposed to different concentrations of test compounds at 37° C., 5% CO2 for 72 hours immediately after seeding. Cell viability was acquired on a Perkin Elmer Envision 2104 multilabel reader using the CellTiter-Glo assay (Promega) according to the manufacturer's instructions.
# T1 sequence (Q02127 whole entry): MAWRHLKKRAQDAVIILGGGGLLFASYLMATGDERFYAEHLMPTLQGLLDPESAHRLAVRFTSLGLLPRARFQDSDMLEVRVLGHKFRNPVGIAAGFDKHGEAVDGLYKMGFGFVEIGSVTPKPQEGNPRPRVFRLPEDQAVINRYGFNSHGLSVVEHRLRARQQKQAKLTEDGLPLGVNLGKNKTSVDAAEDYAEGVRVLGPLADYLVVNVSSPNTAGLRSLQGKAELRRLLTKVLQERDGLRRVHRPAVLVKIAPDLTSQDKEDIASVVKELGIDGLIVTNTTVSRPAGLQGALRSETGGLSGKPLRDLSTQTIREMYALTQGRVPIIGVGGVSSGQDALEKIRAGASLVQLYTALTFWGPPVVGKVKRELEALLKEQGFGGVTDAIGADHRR
SMILES,IC50 (human DHODH),IC50 (MOLM-13 cells)
"C=C(C)c1cc(-c2ccccc2C)nc2cc(F)c(-n3nc(CO)n(CC)c3=O)cc12 [Example 39, 4-Ethyl-1-(7-fluoro-4-(prop-1-en-2-Yl)-2-(o-tolyl)quinolin-6-yl)-3-(hydroxymethyl)-1H-1,2,4-triazol-5 (4H)-one]",0.24 nM,0.2 nM
"CCn1c(CO)nn(-c2cc3c(C(C)C)nc(-c4ccccc4C)nc3cc2F)c1=O [Example 10, 4-Ethyl-2-(7-fluoro-4-isopropyl-2-(o-tolyl)quinazolin-6-yl)-5-(hydroxymethyl)-2,4-dihydro-3H-1,2,4-triazol-3-one]",1.9 nM,2.2 nM
"CCn1c(CO)nn(-c2cc3c(C(C)C)cc(-c4c[nH]nc4C)nc3cc2F)c1=O [Example 16, 4-Ethyl-2-(7-fluoro-4-isopropyl-2-(3-methyl-1H-pyrazol-4-yl)quinolin-6-yl)-5-(hydroxymethyl)-2,4-dihydro-3H-1,2,4-triazol-3-one]",9.4 nM,> 30 nM
"CCn1c(CO)nn(-c2cc3c(C(C)C)cc(-c4c[nH]nc4C4CC4)nc3cc2F)c1=O [Example 15, 1-(2-(3-Cyclopropyl-1H-pyrazol-4-yl)-7-fluoro-4-isopropylquinolin-6-yl)-4-ethyl-3-(hydroxymethyl)-1H-1,2,4-triazol-5 (4H)-one]",13 nM,20 nM
"CCN(CC)c1cc(C(C)C)c2cc(-n3nc(CO)n(CC)c3=O)c(F)cc2n1 [Example 13, 1-(2-(Diethylamino)-7-fluoro-4-isopropylquinolin-6-yl)-4-ethyl-3-(hydroxymethyl)-1H-1,2,4-triazol-5 (4H)-one]",270 nM,> 100 nM
"CCn1c(CO)nn(-c2cc3c(C(C)C)cc(-c4c(C)cnc(OC)c4Cl)nc3cc2F)c1=O [Example 7, 1-(2-(3-Chloro-2-methoxy-5-methylpyridin-4-yl)-7-fluoro-4-isopropylquinolin-6-yl)-4-ethyl-3-(hydroxymethyl)-1H-1,2,4-triazol-5 (4H)-one]",1.5 nM,4 nM
"CCC(CC)Oc1cc(C(C)C)c2cc(-n3nc(CO)n(CC)c3=O)c(F)cc2n1 [Example 5, 4-Ethyl-1-(7-fluoro-4-isopropyl-2-(pentan-3-yloxy)quinolin-6-yl)-3-(hydroxymethyl)-1H-1,2,4-triazol-5 (4H)-one]",332 nM,> 100 nM
"CCn1c(CO)nn(-c2cc3c(C(C)C)cc(-c4c(Cl)c(OC)nn4C)nc3cc2F)c1=O [Example 26, 2-(2-(4-Chloro-3-methoxy-1-methyl-1H-pyrazol-5-yl)-7-fluoro-4-isopropylauinolin-6-yl)-4-ethyl-5-(hydroxymethyl)-2,4-dihydro-3H-1,2,4-triazol-3-one]",13 nM,7 nM
"CCn1c(CO)nn(-c2cc3c(C(C)C)cc(-c4c(Cl)n[nH]c4C)nc3cc2F)c1=O [Example 2, 1-(2-(3-Chloro-5-methyl-1H-pyrazol-4-yl)-7-fluoro-4-isopropylauinolin-6-yl)-4-ethyl-3-(hydroxymethyl)-1H-1,2,4-triazol-5 (4H)-one]",0.49 nM,1.7 nM
"CCn1c(CO)nn(-c2cc3c(C(C)C)cc(-n4nc(C)cc4C)nc3cc2F)c1=O [Example 12, 1-(2-(3,5-Dimethyl-1H-pyrazol-1-yl)-7-fluoro-4-isopropylquinolin-6-yl)-4-ethyl-3-(hydroxymethyl)-1H-1,2,4-triazol-5 (4H)-one]",2.3 nM,5 nM
"Cc1n[nH]c(Cl)c1-c1cc(C(C)C)c2cc(-c3cn(C)c(CO)n3)c(F)cc2n1 [Example 32, (4-(2-(5-Chloro-3-methyl-1H-pyrazol-4-yl)-7-fluoro-4-isopropylauinolin-6-yl)-1-methyl-1H-imidazol-2-yl)methanol]",1.2 nM,3 nM
"CCn1c(CO)nn(-c2cc3c(C(C)C)cc(-c4c(C(F)(F)F)n[nH]c4Cl)nc3cc2F)c1=O [Example 27, 1-(2-(5-Chloro-3-(trifluoromethyl)-1H-pyrazol-4-yl)-7-fluoro-4-isopropylquinolin-6-yl)-4-ethyl-3-(hydroxymethyl)-1H-1,2,4-triazol-5 (4H)-one]",0.7 nM,6 nM
"CCn1c(CO)nn(-c2cc3c(C(C)C)cc(-c4c[nH]nc4C(F)(F)F)nc3cc2F)c1=O [Example 23, 4-Ethyl-1-(7-fluoro-4-isopropyl-2-(3-(trifluoromethyl)-pH-pyrazol-4-yl)quinolin-6-yl)-3-(hydroxymethyl)-1H-1,2,4-triazol-5 (4H)-one]",14 nM,9 nM
"CCn1c(CO)nn(-c2cc3c(C(C)C)cc(N4CCCC[C@H]4C)nc3cc2F)c1=O [Example 18, (R)-4-Ethyl-2-(7-fluoro-4-isopropyl-2-(2-methylpiperidin-1-yl)quinolin-6-yl)-5-(hydroxymethyl)-2,4-dihydro-3H-1,2,4-triazol-3-one]",2280 nM,> 100 nM
